In patent US20110306762A1, “ACID ADDITION SALT OF UDENAFIL, PREPARATION METHOD THEREOF AND PHARMACEUTICAL COMPOSITION COMPRISING THE SAME” (priority 2009, published 2011):

Key:
[1] = Crystallinity test of acid addition salts of Udenafil; type: physicochemical; set-up: key: ◯: Formation of crystal; X: No formation of crystal; details: for Crystallinity test 1-2: crystallization: whether crystallization occurs after dissolving the salt in a suitable solvent; for Crystallinity test 1-1: detecting whether the crystal is formed in the reaction solution
Description: The acid addition salts of Udenafil obtained in Examples 1 to 6 and Comparative Examples were tested for crystallinity and hygroscopicity as follows.
1) detecting whether the crystal is formed in the reaction solution, and
2) crystallization: detecting whether crystallization occurs after dissolving acid addition salt of Udenafil in a suitable solvent.

[2] = Solubility test in distilled water by HPLC; type: physicochemical
Source text: To test the solubility of the acid addition salts of Udenafil in distilled water, the following experiments were preformed.
The analysis conditions for HPLC were as follows:
Detector: ultraviolet ray absorbance measured at wavelength 292 nm
Column: octadecyl silica gel C18 (4.6×150 mm, 5 μm)
Mobile phase: an aqueous solution of potassium dihydrogenphosphate (0.02M):acetonitrile=70:30

[3] = in vivo; cited from earlier work
PDE-5 = PDE-5 (Homo sapiens, UniProt O76074); details: compared with the conventional compounds; cited from earlier work
[4] = Hygroscopicity test of acid addition salts of Udenafil; type: physicochemical; details: exposed for 2 hours, room temperature, relative humidity 43%

| Compound | Crystallinity test 1-2 [1] | Crystallinity test 1-1 [1] | further results |
| --- | --- | --- | --- |
| Cinnamic Acid Addition Salt of Udenafil [Example 4] | ◯ | ◯ | – |
| Benzenesulfonic Acid Addition Salt of Udenafil [Example 2] | ◯ | ◯ | – |
| CCCOc1ccc(S(=O)(=O)NCCC2CCCN2C)cc1-c1nc2c(CCC)nn(C)c2c(=O)[nH]1 (centres unmarked) [Udenafil, 5-[2-propyloxy-5-(1-methyl-2-pyrrolidinyleneamidosulfonyl)phenyl]-1-methyl-propyl-1,6-dihydro-7H-pyrazolo(4,3-d)pyrimidine-7-one] | – | – | solubility in the distilled water [2]: hardly dissolved; detection in the distilled water ([2]; HPLC): not detected; half-life [3]: 12 h; time to maximum peak plasma concentration [3]: 1 h; selectivity to PDE-5 (PDE-5): notably higher selectivity |
| O=CO [formic acid] | X | X | – |
| Adipic Acid Addition Salt of Udenafil [Example 5] | ◯ | ◯ | – |
| Oxalic Acid Addition Salt of Udenafil [Example 1] | ◯ | ◯ | – |
| N[C@@H](CC(=O)O)C(=O)O [aspartic acid] | X | X | – |
| O=C(O)CC(O)(CC(=O)O)C(=O)O [citric acid] | X | X | – |
| CC1(C)C2CCC1(CS(=O)(=O)O)C(=O)C2.CCCOc1ccc(S(=O)(=O)NCCC2CCCN2C)cc1-c1nc2c(CCC)nn(C)c2c(=O)[nH]1 (centres unmarked) [Example 3, Camphorsulfonic Acid Addition Salt of Udenafil] | ◯ | ◯ | Hygroscopicity (weight change ratio, %) [4]: 0.7%; solubility in the distilled water [2]: remarkably excellent solubility; Average of measured peak area ([2]; HPLC, UV 292 nm): 7,142,473; First measured peak area ([2]; HPLC, UV 292 nm): 7,141,140; second measured peak area ([2]; HPLC, UV 292 nm): 7,127,027; third measured peak area ([2]; HPLC, UV 292 nm): 7,158,961 |
| O=C(O)CCCC(=O)O [glutaric acid] | X | X | – |

Further lines, with some results ahead:

| Crystallinity test 1-2 [1] | Crystallinity test 1-1 [1] | Compound | further results |
| --- | --- | --- | --- |
| X | X | O=C(O)CNC(=O)c1ccccc1 [hippuric acid] | – |
| X | X | O=C(O)/C=C\C(=O)O [maleci acid] | – |
| X | X | O=C(O)/C=C\C(=O)O [maleic acid] | – |
| X | X | CC(O)C(=O)O (centres unmarked) [lactic acid] | – |
| X | X | O=C(O)CCC(=O)O [succinic acid] | – |
| X | X | O=C(O)/C=C/C(=O)O [fumaric acid] | – |
| X | X | O=C(O)CC(=O)O [malonic acid] | – |
| X | X | N[C@@H](CCC(=O)O)C(=O)O [glutamic acid] | – |
| X | X | O=C(O)C(O)C(O)C(=O)O (centres unmarked) [tartaric acid] | – |
